Measured values from article PMC12915096, “AI‐Driven Acceleration of Fluorescence Probe Discovery” (Advanced Science, 2025).

Target: T1, tau aggregates in cleared P301S mice brain (Homo sapiens, UniProt P10636, P618S)
T1 construct: from tissue; host or cells: brain of 9-month-old P301S (PS19) tau transgenic mice, in vivo and ex vivo
Experiment: 3D transparent brain imaging after tissue clearing
Format: in vivo
Conditions: transgenic mouse brains, ex vivo
Method: After two‐photon imaging, mice were anesthetized by isoflurane and were transcardially perfused with ice‐cold 1×PBS followed with ice‐cold 4% PFA solution. Brain was incubated in 4% PFA at 4°C with shaking overnight. The samples were then washed with 1×PBS for at least 2 h twice at room temperature. The clearing of the fixed samples was conducted with Nuohai enhanced tissue clearing kit (NH‐CR‐230701, Nuohai Life Science (Shanghai) Co., Ltd). Briefly, samples were immersed individually in 20 mL of solution A for 7–8 days (refreshing the solution every two days) with gentle shaking at 37°C. The sample was washed in 1×PBS for 6 h with gentle shaking at room temperature and the PBS refreshed every 2 h. Finally, the samples were RI matched for 3D imaging. 3D fluorescence imaging of the cleared tissues was conducted with a Nuohai LS 18 tiling light sheet microscope (Nuohai Life Science Co., Ltd). A 4‐tile tiling light sheet was used to illuminate the samples, and a 1 × 0.25 NA objective (Olympus MVPLAPO) was used to collect the fluorescence. The magnification of the microscope was set at 4×, and the spatial resolution was roughly 3.3 × 3.3 × 7 µm^3 at the selected imaging conditions. The collected images were processed with the LS 18 image combine software (Nuohai Life Science Co., Ltd) and rendered using Amira (Thermo Fisher Scientific, USA). […]

T1 sequence (P10636 1-412 isoform P10636-7 P272S): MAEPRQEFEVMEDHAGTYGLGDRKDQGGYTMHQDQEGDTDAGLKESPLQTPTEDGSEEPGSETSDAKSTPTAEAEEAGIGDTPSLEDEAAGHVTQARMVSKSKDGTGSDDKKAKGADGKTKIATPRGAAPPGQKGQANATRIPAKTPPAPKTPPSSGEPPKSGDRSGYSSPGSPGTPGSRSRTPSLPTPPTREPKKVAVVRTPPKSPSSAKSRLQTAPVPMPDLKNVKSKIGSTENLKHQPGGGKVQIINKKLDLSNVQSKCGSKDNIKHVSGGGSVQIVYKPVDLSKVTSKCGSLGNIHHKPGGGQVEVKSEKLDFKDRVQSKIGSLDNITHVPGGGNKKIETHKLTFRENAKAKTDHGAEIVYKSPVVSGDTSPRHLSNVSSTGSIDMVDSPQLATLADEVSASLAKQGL

O=C(O)c1cc(/C=C/c2ccc(/C=C/c3ccc(O)c(C(=O)O)c3)c(F)c2)ccc1O [FSB]
Tau labeling signal after 8 days of tissue clearing: nearly abolished
